Patent publication US5591714A, “Derivatives of A82846” (priority 1994, dated 1997)
≈ marks a conversion by molar mass, not a printed value.

Experiments:
Escherichia coli EC14 = assay: MIC, standard agar-dilution assay; type: cell-based
Description: (§1) The formula I compounds have in vitro and in vivo activity against Gram-positive pathogenic bacteria. The MIC's were determined using a standard agar-dilution assays.

Escherichia coli N10 = assay: MIC, standard agar-dilution assay; type: cell-based
Description: as §1

Escherichia coli TEM = assay: MIC, standard agar-dilution assay; type: cell-based
Description: as §1

[1] = test system: Haemophilus influenzae 76; assay: MIC, standard agar-dilution assay; type: cell-based
Description: as §1

[2] = test system: Haemophilus influenzae C.L.; assay: MIC, standard agar-dilution assay; type: cell-based
Description: as §1

[3] = test system: Klebsiella pneumoniae KAE; assay: MIC, standard agar-dilution assay; type: cell-based
Description: as §1

[4] = test system: Klebsiella pneumoniae X26; assay: MIC, standard agar-dilution assay; type: cell-based
Description: as §1

[5] = test system: Klebsiella pneumoniae X68; assay: MIC, standard agar-dilution assay; type: cell-based
Description: as §1

[6] = test system: Staphylococcus aureus NRRL X1.1; assay: MIC, standard agar-dilution assay; type: cell-based
Description: as §1

[7] = test system: Staphylococcus aureus V41; assay: MIC, standard agar-dilution assay; type: cell-based
Description: as §1

[8] = test system: Staphylococcus aureus X400; assay: MIC, standard agar-dilution assay; type: cell-based
Description: as §1

[9] = test system: Staphylococcus epidermidis 222; assay: MIC, standard agar-dilution assay; type: cell-based
Description: as §1

[10] = test system: Staphylococcus epidermidis EPI270; assay: MIC, standard agar-dilution assay; type: cell-based
Description: as §1

[11] = test system: Streptococcus pyogenes C203; assay: MIC, standard agar-dilution assay; type: cell-based
Description: as §1

[12] = test system: Staphylococcus aureus S13E; type: cell-based
Description: as §1

[13] = test system: Streptococcus pneumoniae Park 1; type: cell-based
Description: as §1

Enterococcus faecium X66 = assay: MIC, standard agar-dilution assay; type: cell-based
Description: as §1
^b Formerly Streptococcus faecium X66

[14] = test system: Enterococcus faecalis 2041; assay: MIC, standard agar-dilution assay; type: cell-based
Description: as §1
^c Formerly Streptococcus faecalis 2041

Staphylococcus aureus = assay: In vivo activity, experimentally infected mice (ED50); details: Staphylococcus aureus infection; doses administered subcutaneously to mice 1 and 4 hours postinfection
Streptococcus pyogenes = assay: as above; details: Streptococcus pyogenes infection; doses administered subcutaneously to mice 1 and 4 hours postinfection
Streptococcus pneumoniae = assay: as above; details: Streptococcus pneumoniae infection; doses administered subcutaneously to mice 1 and 4 hours postinfection
[15] = test system: vancomycin-resistant (Vanco^r) E. faecium and E. faecalis; assay: Susceptibility of vancomycin-resistant enterococci, agar-dilution MIC; type: cell-based; details: for Geometric Mean MIC, Vanco^r Strains: n = 25 strains, end points read after 24-hour incubation
Description: (§2) End points were read after 24-hour incubation. The ratio was calculated by dividing the mean MIC of the compound against the vancomycin-resistant strains by the mean MIC of the compound against the vancomycin-susceptible strains.

[16] = test system: vancomycin-susceptible (Vanco^s) E. faecium and E. faecalis; assay: Susceptibility of vancomycin-susceptible enterococci, agar-dilution MIC; type: cell-based; details: n = 34 strains; end points read after 24-hour incubation
Description: as §2

[17] = test system: six vancomycin-susceptible strains of staphylococci and enterococci; assay: Effect of human serum on the MIC, serial dilution assay; type: cell-based; details: for MIC determined in absence of added serum: absence (-) of human serum; for ratio of the MIC in the presence of added serum to the MIC in the absence of added serum: indication of the degree of serum binding; for MIC determined in presence of human serum: broth supplemented with human serum to 40%
Text: Another important property of the formula I compounds is the low binding of the compounds to serum proteins when compared with other glycopeptide antibiotics. […] The ratio of the MIC measured in the presence of added serum to the MIC measured in the absence of added serum ("ratio") is an indication of the degree of serum binding. […] A ratio that is greater than one, for example about ten, indicates the compound has a high degree of serum binding.

SMILES	MIC (Escherichia coli EC14) [µg/mL]	MIC (Escherichia coli N10) [µg/mL]	MIC (Escherichia coli TEM) [µg/mL]	MIC [1] [µg/mL]	MIC [2] [µg/mL]	MIC [3] [µg/mL]	MIC [4] [µg/mL]	MIC [5] [µg/mL]	MIC [6]	MIC [7]	MIC [8]	MIC [9]	MIC [10] [µg/mL]	MIC [11]	MIC [12]	MIC [13]	MIC (Enterococcus faecium X66)	MIC [14]	ED50 (Staphylococcus aureus) [mg/kg/2]	ED50 (Streptococcus pyogenes)	also measured
CCCCCCCCN[C@@]1(C)C[C@H](O[C@H]2[C@H](Oc3c4cc5cc3Oc3ccc(cc3Cl)[C@@H](O[C@H]3C[C@](C)(N)[C@@H](O)[C@H](C)O3)[C@@H]3NC(=O)[C@H](NC(=O)[C@@H]5NC(=O)[C@H](CC(N)=O)NC(=O)[C@H](NC(=O)[C@@H](CC(C)C)NC)[C@H](O)c5ccc(c(Cl)c5)O4)c4ccc(O)c(c4)-c4c(O)cc(O)cc4[C@@H](C(=O)O)NC3=O)O[C@H](CO)[C@@H](O)[C@@H]2O)O[C@@H](C)[C@@H]1O [Compound 38]	> 128	> 128	> 128	> 128	> 128	> 128	> 128	> 128	.5 µg/mL (≈ 0.293 µM)	1 µg/mL (≈ 0.587 µM)	1 µg/mL (≈ 0.587 µM)	.5 µg/mL (≈ 0.293 µM)	1 (≈ 0.587 µM)	.06 µg/mL (≈ 0.0352 µM)	.5 µg/mL (≈ 0.293 µM)	.25 µg/mL (≈ 0.147 µM)	.25 µg/mL (≈ 0.147 µM)	.25 µg/mL (≈ 0.147 µM)	0.43	0.11 mg/kg/2	ED50 (Streptococcus pneumoniae): 0.062 mg/kg/2; Ratio (mean MIC vancomycin-resistant strains / mean MIC vancomycin-susceptible strains) [15]: 2.9; Geometric Mean MIC, Vanco^r Strains [15]: 2.1 µg/mL; Geometric Mean MIC, Vanco^s Strains [16]: 0.73 µg/mL; MIC determined in absence of added serum [17]: 0.75; ratio of the MIC in the presence of added serum to the MIC in the absence of added serum [17]: 0.58; MIC determined in presence of human serum [17]: 0.43
CCCCCCCCCCN[C@@]1(C)C[C@H](O[C@H]2[C@H](Oc3c4cc5cc3Oc3ccc(cc3Cl)[C@@H](O[C@H]3C[C@](C)(N)[C@@H](O)[C@H](C)O3)[C@@H]3NC(=O)[C@H](NC(=O)[C@@H]5NC(=O)[C@H](CC(N)=O)NC(=O)[C@H](NC(=O)[C@@H](CC(C)C)NC)[C@H](O)c5ccc(c(Cl)c5)O4)c4ccc(O)c(c4)-c4c(O)cc(O)cc4[C@@H](C(=O)O)NC3=O)O[C@H](CO)[C@@H](O)[C@@H]2O)O[C@@H](C)[C@@H]1O [Compound 42]	> 128	> 128	> 128	> 128	> 128	> 128	> 128	> 128	.5 µg/mL (≈ 0.289 µM)	.5 µg/mL (≈ 0.289 µM)	.5 µg/mL (≈ 0.289 µM)	.5 µg/mL (≈ 0.289 µM)	1 (≈ 0.577 µM)	.25 µg/mL (≈ 0.144 µM)	1 µg/mL (≈ 0.577 µM)	.25 µg/mL (≈ 0.144 µM)	.06 µg/mL (≈ 0.0346 µM)	.5 µg/mL (≈ 0.289 µM)	0.67	0.09 mg/kg/2	ED50 (Streptococcus pneumoniae): 0.09 mg/kg/2; Ratio (mean MIC vancomycin-resistant strains / mean MIC vancomycin-susceptible strains) [15]: 2.7; Geometric Mean MIC, Vanco^r Strains [15]: 2.5 µg/mL; Geometric Mean MIC, Vanco^s Strains [16]: 0.92 µg/mL; MIC determined in absence of added serum [17]: 0.87; ratio of the MIC in the presence of added serum to the MIC in the absence of added serum [17]: 0.76; MIC determined in presence of human serum [17]: 0.66
CCN(CC)c1ccc(CNC2(C)CC(OC3C(Oc4c5cc6cc4Oc4ccc(cc4Cl)C(OC4CC(C)(N)C(O)C(C)O4)C4NC(=O)C(NC(=O)C6NC(=O)C(CC(N)=O)NC(=O)C(NC(=O)C(CC(C)C)NC)C(O)c6ccc(c(Cl)c6)O5)c5ccc(O)c(c5)-c5c(O)cc(O)cc5C(C(=O)O)NC4=O)OC(CO)C(O)C3O)OC(C)C2O)cc1 (stereo not drawn) [Compound 56]	> 128	> 128	> 128	> 128	> 128	> 128	> 128	> 128	.5 µg/mL (≈ 0.285 µM)	.5 µg/mL (≈ 0.285 µM)	1 µg/mL (≈ 0.57 µM)	.5 µg/mL (≈ 0.285 µM)	2 (≈ 1.14 µM)	.5 µg/mL (≈ 0.285 µM)	1 µg/mL (≈ 0.57 µM)	.5 µg/mL (≈ 0.285 µM)	1 µg/mL (≈ 0.57 µM)	.5 µg/mL (≈ 0.285 µM)	0.65	.06 mg/kg/2	ED50 (Streptococcus pneumoniae): .09 mg/kg/2; Ratio (mean MIC vancomycin-resistant strains / mean MIC vancomycin-susceptible strains) [15]: 7.0; Geometric Mean MIC, Vanco^r Strains [15]: 5.1 µg/mL; Geometric Mean MIC, Vanco^s Strains [16]: 0.73 µg/mL
